From article PMC8807399, “Synthesis, Characterization, and in vivo Evaluation of a Novel Potent Autotaxin-Inhibitor” (Frontiers in Pharmacology, 2022)

What was measured:
EAG model rats = test: Experimental autoimmune glaucoma (EAG) model; type: in vivo, rat; details: ONA + ATX-i group; for IOP: 20 mg/kg food admix
Method: Calculations of the daily doses were based on average food intake of rats used in the studies. […] After mixing, ethanol was removed in vacuo until dryness.
The regular chow diet for the treatment groups was replaced with the same chow diet containing the treatment substance.
For the EAG model, preparation and immunization of the optic nerve antigen (ONA = bovine optic nerve homogenate) was carried out as previously described ([Laspas et al., 2011]; [Joachim et al., 2013]). Rats received an intraperitoneal injection with 8 mg/ml ONA. The antigen was mixed with incomplete Freund’s adjuvant (500 µl) plus 3 µg pertussis toxin (both Sigma Aldrich, St. Louis, MO, United States). The animals of the control group were injected with NaCl in Freund’s adjuvant and pertussis toxin. Rats were sacrificed 28 days after immunization.
Aqueous humor and serum were collected at the end of the EAG study. IgG levels were measured in serum and aqueous humor samples from the EAG study (both: 6-7 samples/group) using a sandwich enzyme-linked immunosorbent assay (ELISA) kit (eBioscience, Frankfurt, Germany) according to the manufacturer’s instructions. In brief, samples of aqueous humor from both groups were prediluted 1,000- or 2,000-fold in assay buffer, serum samples were diluted 100,000- or 200,000-fold in assay buffer. 75 µl of assay buffer were inserted into each sample well. 25 µl of the prediluted sample were added to the appropriate wells. All samples were incubated, and the absorbance was read at 405 nm using a microplate reader (AESKU.Reader with Gen5 ELISA Software, AESKU.DIAGNOSTICS, Wendelsheim, Germany) ([Reinehr et al., 2018]; [Tsai et al., 2018]).
The IOP was measured in both eyes of each animal in the EAG study with a rebound tonometer (Tonolab; iCare, Oy, Finland) 1 week before as well as 1, 2, and 3 weeks after immunization (n = 5–6 animals/group). The tonometer was held horizontally in front of the animal’s eye ([Pease et al., 2006]). 10 measurements per eye were recorded. From these values, the mean value was calculated ([Reinehr et al., 2019a]).
After explantation, eyes and optic nerves were fixed in 4% paraformaldehyde for 60 min (eyes) or 120 min (optic nerves) and then treated with 30% sucrose overnight. Afterwards, the retinas and optic nerves were embedded in NEG-50 Tissue-Tek medium (Thermo Fisher, Waltham, MA, United States). Cryo-cross sections of the eyes (10 µm) or longitudinal sections of the optic nerves (4 µm) were cut on a microtome (Thermo Fisher), mounted on Histobond Superfrost^+ slides (Thermo Fisher) and fixed in ice cold acetone for 10 min.
Longitudinal optic nerve sections (EAG: 5-6 nerves/group, I/R 14 days: 6-7 nerves/group) were stained with H&E and luxol fast blue (LFB). Of each staining, three areas per optic nerve section were documented with a microscope equipped with a CCD camera (Axio Imager M1; Zeiss) as previously described ([Palmhof et al., 2019]). One photo was taken of the proximal part, one of the middle and one of the distal part, right in front of the chiasma.
Cell infiltration in optic nerve sections stained with H&E was evaluated by using a scoring system ranging from 0 to 4 by a masked observer: 0 = no infiltration; 1 = mild cellular infiltration of the optic nerve or optic nerve sheath; 2 = moderate infiltration; 3 = severe infiltration; and 4 = massive infiltration of the optic nerve parenchyma and nodule infiltration ([Shindler et al., 2006]; [Horstmann et al., 2016]; [Renner et al., 2017]). The average score for each optic nerve was used for statistical analysis.
The grade of demyelination was monitored in optic nerve sections stained with LFB. Therefore, staining was scored from 0 to 2 and categorized as follows: 0 = no demyelination; 0.5 = mild demyelination; 1 = moderate demyelination; 1.5 = advanced demyelination; and 2 = severe demyelination up to dissolution of the tissue.

ADAM 17 = target: T1, ADAM 17 (Homo sapiens, UniProt P78536); test: Off-target screen ADAM 17; type: biochemical; details: 10 µM; single point, duplicates
T1 construct: purchased Eurofins CEREP SA

CDK2 = target: T2, CDK2 (Homo sapiens, UniProt P24941); test: Off-target screen CDK2; type: biochemical; details: 10 µM; single point, duplicates
T2 construct: purchased Eurofins CEREP SA

GSK-3B = target: T3, GSK-3B (Homo sapiens, UniProt P49841); test: Off-target screen GSK-3B; type: biochemical; details: 10 µM; single point, duplicates
T3 construct: purchased Eurofins CEREP SA

Histamine H1 receptor = target: T4, Histamine H1 receptor (Homo sapiens, UniProt P35367); test: Off-target screen Histamine H1; type: binding; details: 10 µM; single point, duplicates
T4 construct: purchased Eurofins CEREP SA

LPA1 receptor = target: T5, LPA1 receptor (Homo sapiens, UniProt Q92633); test: Off-target screen LPA1 receptor; details: 10 µM; single point, duplicates
T5 construct: purchased Eurofins CEREP SA

LPA2 receptor = target: T6, LPA2 receptor (Homo sapiens, UniProt Q9HBW0); test: Off-target screen LPA2 receptor, antagonist mode; type: cell-based; details: 10 µM, single point, duplicates
T6 construct: purchased Eurofins CEREP SA

MMP-1 = target: T7, MMP-1 (Homo sapiens, UniProt P03956); test: Off-target screen MMP-1; type: biochemical; details: 10 µM; single point, duplicates
T7 construct: purchased Eurofins CEREP SA

MAO-A = target: T8, MAO-A (Homo sapiens, UniProt P21397); test: Off-target screen MAO-A; type: biochemical; details: 10 µM; single point, duplicates
T8 construct: purchased Eurofins CEREP SA

S1P2 = target: T9, S1P2 (Homo sapiens, UniProt O95136); test: Off-target screen S1P2, antagonist mode; type: cell-based; details: 10 µM, single point, duplicates
T9 construct: purchased Eurofins CEREP SA

S1P3 = target: T10, S1P3 (Homo sapiens, UniProt Q99500); test: Off-target screen S1P3, agonist mode; type: cell-based; details: 10 µM, single point, duplicates
T10 construct: purchased Eurofins CEREP SA

Xanthine oxidase = target: T11, Xanthine oxidase (Bos taurus, UniProt P80457); test: Off-target screen Xanthine oxidase; type: biochemical, b; details: 10 µM; single point, duplicates
T11 construct: purchased Eurofins CEREP SA

mu opioid receptor = target: T12, mu opioid receptor (Homo sapiens, UniProt P35372); test: Off-target screen mu opioid receptor; type: binding; details: 10 µM; single point, duplicates
T12 construct: purchased Eurofins CEREP SA

plasma ATX = plasma ATX (Rattus norvegicus, UniProt Q64610); test: in vivo
Method: Plasma samples were collected in triplicates at 0, 1, 3, 6, and 24 h and were added to heparinated tubes and kept at 0°C until further processing. Sampling and immediate processing at 0°C is crucial for the measurements of basal levels, since at higher temperatures, LPA is produced rapidly according to the ATX activity in the sample. […] The other 2 aliquots were used to determine ATX activity by incubation of the sample at 37°C for 4 h, followed again by analysis of LPA levels in the same way as for the basal LPA levels.
For all doses (3, 10, and 30 mg/kg po), 5 animals/group were used. […] Values are mean ± SD.
To better observe the modulation of the individual LPA species, a second set of plasma samples was incubated at 37°C for 2 h prior to LC/MS analysis.

T3 sequence (P49841 whole entry): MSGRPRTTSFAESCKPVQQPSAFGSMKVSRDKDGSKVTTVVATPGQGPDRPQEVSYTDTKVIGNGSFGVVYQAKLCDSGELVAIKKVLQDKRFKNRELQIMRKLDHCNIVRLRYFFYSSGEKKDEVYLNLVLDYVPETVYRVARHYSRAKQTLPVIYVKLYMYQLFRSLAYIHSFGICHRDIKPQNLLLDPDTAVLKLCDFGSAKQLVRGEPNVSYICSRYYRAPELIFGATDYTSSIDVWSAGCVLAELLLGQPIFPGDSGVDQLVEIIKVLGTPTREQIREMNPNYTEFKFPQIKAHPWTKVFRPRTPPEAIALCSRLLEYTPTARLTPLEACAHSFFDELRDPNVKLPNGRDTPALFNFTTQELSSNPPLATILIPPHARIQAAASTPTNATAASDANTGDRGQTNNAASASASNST
T5 sequence (Q92633 whole entry): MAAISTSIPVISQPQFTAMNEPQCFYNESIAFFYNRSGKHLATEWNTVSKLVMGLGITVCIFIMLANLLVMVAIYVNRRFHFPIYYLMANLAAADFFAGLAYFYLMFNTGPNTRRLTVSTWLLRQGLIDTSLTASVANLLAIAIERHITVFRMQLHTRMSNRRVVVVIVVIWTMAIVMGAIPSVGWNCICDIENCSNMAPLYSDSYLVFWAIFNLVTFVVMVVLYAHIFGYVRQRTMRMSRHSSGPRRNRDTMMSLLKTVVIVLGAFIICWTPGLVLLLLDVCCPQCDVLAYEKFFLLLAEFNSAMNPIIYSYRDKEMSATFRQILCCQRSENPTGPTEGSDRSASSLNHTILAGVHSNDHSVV
T9 sequence (O95136 whole entry): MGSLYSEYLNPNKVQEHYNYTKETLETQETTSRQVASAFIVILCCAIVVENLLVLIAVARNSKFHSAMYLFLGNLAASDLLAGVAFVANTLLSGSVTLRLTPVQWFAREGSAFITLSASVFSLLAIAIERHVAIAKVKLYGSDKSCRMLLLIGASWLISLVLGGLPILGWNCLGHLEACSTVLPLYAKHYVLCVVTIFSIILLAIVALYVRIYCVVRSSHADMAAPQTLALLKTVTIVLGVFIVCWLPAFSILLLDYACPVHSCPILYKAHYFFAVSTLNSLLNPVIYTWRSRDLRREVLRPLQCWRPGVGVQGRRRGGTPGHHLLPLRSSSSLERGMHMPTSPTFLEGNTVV
T7 sequence (P03956 100-469): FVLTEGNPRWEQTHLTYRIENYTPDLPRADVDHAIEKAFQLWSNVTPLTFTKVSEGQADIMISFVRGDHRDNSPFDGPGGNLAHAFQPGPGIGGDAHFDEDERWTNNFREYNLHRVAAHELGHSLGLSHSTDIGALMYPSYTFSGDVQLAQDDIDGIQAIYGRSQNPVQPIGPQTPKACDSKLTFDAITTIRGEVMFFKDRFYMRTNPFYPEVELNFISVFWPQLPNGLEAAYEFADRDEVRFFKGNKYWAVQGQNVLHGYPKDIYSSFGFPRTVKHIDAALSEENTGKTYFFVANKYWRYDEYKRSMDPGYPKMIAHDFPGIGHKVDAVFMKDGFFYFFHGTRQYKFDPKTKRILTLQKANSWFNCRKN
T11 sequence (P80457 2-1332): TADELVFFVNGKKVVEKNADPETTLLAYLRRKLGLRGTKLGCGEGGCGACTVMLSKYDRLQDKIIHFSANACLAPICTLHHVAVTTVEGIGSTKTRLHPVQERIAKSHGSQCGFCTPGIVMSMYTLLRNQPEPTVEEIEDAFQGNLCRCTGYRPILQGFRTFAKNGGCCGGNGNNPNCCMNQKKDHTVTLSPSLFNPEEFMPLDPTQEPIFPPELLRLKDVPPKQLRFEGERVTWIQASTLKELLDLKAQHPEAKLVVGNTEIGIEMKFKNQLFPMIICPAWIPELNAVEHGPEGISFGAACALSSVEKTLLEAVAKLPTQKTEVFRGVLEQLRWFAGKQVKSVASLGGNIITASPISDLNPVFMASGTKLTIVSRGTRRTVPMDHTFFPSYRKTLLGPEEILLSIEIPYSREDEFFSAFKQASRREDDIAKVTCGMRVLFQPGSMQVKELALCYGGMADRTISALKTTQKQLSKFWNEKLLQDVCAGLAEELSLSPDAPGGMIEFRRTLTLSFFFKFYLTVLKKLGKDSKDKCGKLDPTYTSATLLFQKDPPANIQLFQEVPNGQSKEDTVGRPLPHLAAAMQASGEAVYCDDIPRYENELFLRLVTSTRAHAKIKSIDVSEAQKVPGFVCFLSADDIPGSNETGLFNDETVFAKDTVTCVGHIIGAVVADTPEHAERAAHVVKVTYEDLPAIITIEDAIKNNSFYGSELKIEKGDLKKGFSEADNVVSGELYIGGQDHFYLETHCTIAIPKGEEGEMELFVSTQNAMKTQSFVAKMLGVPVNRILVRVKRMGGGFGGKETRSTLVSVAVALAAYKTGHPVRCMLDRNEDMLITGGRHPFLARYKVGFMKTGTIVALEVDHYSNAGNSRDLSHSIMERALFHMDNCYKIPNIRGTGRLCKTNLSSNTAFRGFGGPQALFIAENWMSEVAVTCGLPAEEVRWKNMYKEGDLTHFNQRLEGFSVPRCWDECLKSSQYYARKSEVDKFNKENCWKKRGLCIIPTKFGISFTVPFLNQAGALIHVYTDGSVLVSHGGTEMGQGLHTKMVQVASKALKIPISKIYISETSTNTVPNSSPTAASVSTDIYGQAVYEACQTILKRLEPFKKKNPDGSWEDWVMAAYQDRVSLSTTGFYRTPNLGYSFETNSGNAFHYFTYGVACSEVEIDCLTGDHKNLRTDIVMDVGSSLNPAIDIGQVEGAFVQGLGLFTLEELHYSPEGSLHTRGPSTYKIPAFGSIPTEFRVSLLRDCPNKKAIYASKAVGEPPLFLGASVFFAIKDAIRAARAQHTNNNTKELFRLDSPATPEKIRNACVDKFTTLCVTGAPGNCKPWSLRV
T10 sequence (Q99500 whole entry): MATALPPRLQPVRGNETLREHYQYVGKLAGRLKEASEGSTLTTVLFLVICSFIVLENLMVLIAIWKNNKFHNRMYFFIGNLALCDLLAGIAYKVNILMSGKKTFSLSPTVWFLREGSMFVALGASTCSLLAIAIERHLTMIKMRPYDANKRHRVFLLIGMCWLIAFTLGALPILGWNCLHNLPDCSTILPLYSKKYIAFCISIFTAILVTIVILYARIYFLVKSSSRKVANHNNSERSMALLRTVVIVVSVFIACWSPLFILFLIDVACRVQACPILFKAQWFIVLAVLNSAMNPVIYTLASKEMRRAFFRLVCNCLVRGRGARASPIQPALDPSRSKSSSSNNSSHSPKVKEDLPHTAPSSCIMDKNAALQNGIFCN
T1 sequence (P78536 215-824): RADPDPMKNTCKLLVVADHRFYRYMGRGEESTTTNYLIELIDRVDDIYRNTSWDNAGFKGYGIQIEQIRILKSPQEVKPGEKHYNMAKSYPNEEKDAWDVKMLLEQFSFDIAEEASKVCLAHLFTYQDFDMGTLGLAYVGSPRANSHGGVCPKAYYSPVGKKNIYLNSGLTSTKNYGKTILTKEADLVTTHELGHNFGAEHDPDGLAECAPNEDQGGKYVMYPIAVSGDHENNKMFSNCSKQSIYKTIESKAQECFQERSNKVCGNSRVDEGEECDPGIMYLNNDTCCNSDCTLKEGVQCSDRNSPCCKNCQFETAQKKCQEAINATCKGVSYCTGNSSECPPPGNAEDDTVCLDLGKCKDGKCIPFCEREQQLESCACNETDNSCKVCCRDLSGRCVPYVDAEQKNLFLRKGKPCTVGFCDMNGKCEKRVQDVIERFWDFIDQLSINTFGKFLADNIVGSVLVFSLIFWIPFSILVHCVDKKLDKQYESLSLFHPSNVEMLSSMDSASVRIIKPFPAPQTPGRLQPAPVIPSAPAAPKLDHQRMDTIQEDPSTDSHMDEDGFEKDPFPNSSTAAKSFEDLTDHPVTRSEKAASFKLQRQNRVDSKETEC
T4 sequence (P35367 whole entry): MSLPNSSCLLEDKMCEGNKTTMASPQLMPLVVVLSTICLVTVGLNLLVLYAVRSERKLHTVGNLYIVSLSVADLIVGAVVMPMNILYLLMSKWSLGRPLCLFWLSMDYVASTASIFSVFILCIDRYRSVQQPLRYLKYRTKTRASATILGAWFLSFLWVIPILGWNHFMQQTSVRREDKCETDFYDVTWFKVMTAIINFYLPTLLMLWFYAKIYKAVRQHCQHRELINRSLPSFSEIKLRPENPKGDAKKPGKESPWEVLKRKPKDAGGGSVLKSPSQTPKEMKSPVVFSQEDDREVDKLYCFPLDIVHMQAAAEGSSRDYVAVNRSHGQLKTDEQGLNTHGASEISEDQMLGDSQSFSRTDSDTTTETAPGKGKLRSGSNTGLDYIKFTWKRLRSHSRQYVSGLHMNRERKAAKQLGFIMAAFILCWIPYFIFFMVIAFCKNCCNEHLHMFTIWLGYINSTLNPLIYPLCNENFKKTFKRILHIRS
T8 sequence (P21397 whole entry): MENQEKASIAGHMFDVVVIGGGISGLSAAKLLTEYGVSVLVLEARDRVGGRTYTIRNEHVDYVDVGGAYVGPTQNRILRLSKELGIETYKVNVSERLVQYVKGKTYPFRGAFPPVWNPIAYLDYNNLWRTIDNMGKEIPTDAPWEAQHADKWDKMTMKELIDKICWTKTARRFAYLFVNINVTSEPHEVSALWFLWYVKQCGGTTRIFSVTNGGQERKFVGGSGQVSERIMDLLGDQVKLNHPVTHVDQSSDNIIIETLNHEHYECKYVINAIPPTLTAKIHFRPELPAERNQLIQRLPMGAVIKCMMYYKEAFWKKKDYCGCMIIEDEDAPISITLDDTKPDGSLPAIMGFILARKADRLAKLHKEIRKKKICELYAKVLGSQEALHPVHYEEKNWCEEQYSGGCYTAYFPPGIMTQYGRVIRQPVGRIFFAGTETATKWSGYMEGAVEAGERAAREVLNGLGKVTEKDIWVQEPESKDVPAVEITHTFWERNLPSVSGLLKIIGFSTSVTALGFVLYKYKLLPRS

O=C(OCc1ccc(OC(F)(F)F)cc1)N1C[C@@H]2CN(C(=O)c3ccc4[nH]nnc4c3)C[C@H]2C1 [Compound 13, (3aS,6aS)-5-(1H-Benzotriazole-5-carbonyl)-hexahydro-pyrrolo[3,4-c]pyrrole-2-carboxylic acid 4-trifluoromethoxy-benzyl ester]
IOP (EAG model rats; 1 week after immunization, ONA 10.44 ± 0.62, control 11.26 ± 0.54): 10.54 ± 0.40 mmHg
IOP (EAG model rats; 1 week before immunization, ONA 10.34 ± 0.67, control 10.36 ± 1.03): 10.91 ± 0.50 mmHg
IOP (EAG model rats; 2 weeks after immunization, ONA 10.74 ± 0.55, control 11.36 ± 0.52): 10.85 ± 0.42 mmHg
IOP (EAG model rats; 3 weeks after immunization, ONA 10.77 ± 0.77, control 11.47 ± 0.62): 10.69 ± 0.60 mmHg
ED1+ and Iba1+ active microglia, optic nerve (EAG model rats; 28 days, ONA 0.27 ± 0.24, control 0.06 ± 0.11): 0.22 ± 0.10 cells/image
Iba1+ microglia, optic nerve (EAG model rats; 28 days, ONA 3.14 ± 0.94, control 1.28 ± 0.15): 2.96 ± 0.92 cells/image
ED1+ and Iba1+ microglia, retina (EAG model rats; 28 days, ONA 7.70 ± 6.27, control 1.52 ± 1.28): 5.08 ± 1.86 cells/mm
GFAP area, retina (EAG model rats; 28 days, ONA 13.55 ± 3.42, control 9.72 ± 0.84): 10.30 ± 2.29 area [%]/section
Iba1+ microglia cell count, retina (EAG model rats; 28 days, ONA 22.06 ± 7.81, control 13.67 ± 3.04): 19.76 ± 2.82 cells/mm
Brn-3a+ RGC number, retina (EAG model rats; 28 days, ONA 29.47 ± 6.20, control 58.11 ± 4.22, p = 0.032 vs ONA): 38.59 ± 4.33 cells/mm
Optic nerve LFB score (EAG model rats; 28 days, score 0-2, ONA 0.58 ± 0.20, control 0.31 ± 0.13): 0.77 ± 0.66
GFAP score, optic nerve (EAG model rats; 28 days, score 0-2, ONA 0.81 ± 0.17, control 0.71 ± 0.26): 1.00 ± 0.29
Optic nerve SMI-32 score (EAG model rats; 28 days, score 0-2, ONA 0.91 ± 0.08, control 0.58 ± 0.14): 0.75 ± 0.19
Optic nerve H&E score (EAG model rats; 28 days, score 0-4, ONA 1.22 ± 0.43, control 0.80 ± 0.51): 1.27 ± 0.86
Serum IgG level (EAG model rats; end of EAG study, ONA 15.78 ± 5.00, control 8.31 ± 5.76): 12.30 ± 2.70 mg/mL
Aqueous humor IgG level (EAG model rats; end of EAG study, ONA 272.24 ± 98.17, control 62.31 ± 19.91, p = 0.025 vs ONA): 167.26 ± 34.50 µg/mL
ADAM 17 (h) [% inhib] (ADAM 17): 9 % inhib
CDK2 (h) [% inhib] (CDK2): 0 % inhib
GSK-3B (h) [% inhib] (GSK-3B): -8 % inhib
Histamine H1 receptor (h) [% inhib] (Histamine H1 receptor): 5 % inhib
LPA1 receptor (h) [% inhib] (LPA1 receptor): -19 % inhib
LPA2 receptor (h), antago. mode [% inhib] (LPA2 receptor): 49 % inhib
MMP-1 (h) [% inhib] (MMP-1): -9 % inhib
MAO-A (h) [% inhib] (MAO-A): -1 % inhib
S1P2 (h), antago. mode [% inhib] (S1P2): 45 % inhib
S1P3 (h), agonist mode [% pos ctrl] (S1P3): 8 % pos ctrl
Xanthine oxidase (b) [% inhib] (Xanthine oxidase): 7 % inhib
mu opioid receptor (h) [% inhib] (mu opioid receptor): 15 % inhib
IC50 (plasma ATX): ~1.47 nM
